Experimental findings from patent US11866450B2, “Modulators of Cystic Fibrosis Transmembrane Conductance regulator, pharmaceutical compositions, methods of treatment, and process for making the modulators” (priority 2018, dated 2024) are described below.

For the experiment, the target named is CFTR-mediated chloride transport (Homo sapiens, UniProt P13569). The experiment is classed as cell-based. The conditions noted are these: enteroid cells incubated with test compound 18-24 hours, acute 10 μM forskolin and 300 nM Compound III; for Max. Activity: % of chloride transport with 3 μM Compound A, 3 μM Compound II and 300 nM acute Compound III triple combination control. In short, it runs like this: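 Membrane-potential fluorescence AUC over 15 min quantified CFTR chloride transport after acute forskolin (10 μM), IBMX (100 μM) and Compound III (300 nM) in chloride-free buffer. Human enteroid cells were pretreated with compound for 18–24 h; % Activity is relative to 3 μM Compound A + 3 μM Compound II + 300 nM Compound III.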
Sequence of CFTR-mediated chloride transport (P13569 whole entry, looked up): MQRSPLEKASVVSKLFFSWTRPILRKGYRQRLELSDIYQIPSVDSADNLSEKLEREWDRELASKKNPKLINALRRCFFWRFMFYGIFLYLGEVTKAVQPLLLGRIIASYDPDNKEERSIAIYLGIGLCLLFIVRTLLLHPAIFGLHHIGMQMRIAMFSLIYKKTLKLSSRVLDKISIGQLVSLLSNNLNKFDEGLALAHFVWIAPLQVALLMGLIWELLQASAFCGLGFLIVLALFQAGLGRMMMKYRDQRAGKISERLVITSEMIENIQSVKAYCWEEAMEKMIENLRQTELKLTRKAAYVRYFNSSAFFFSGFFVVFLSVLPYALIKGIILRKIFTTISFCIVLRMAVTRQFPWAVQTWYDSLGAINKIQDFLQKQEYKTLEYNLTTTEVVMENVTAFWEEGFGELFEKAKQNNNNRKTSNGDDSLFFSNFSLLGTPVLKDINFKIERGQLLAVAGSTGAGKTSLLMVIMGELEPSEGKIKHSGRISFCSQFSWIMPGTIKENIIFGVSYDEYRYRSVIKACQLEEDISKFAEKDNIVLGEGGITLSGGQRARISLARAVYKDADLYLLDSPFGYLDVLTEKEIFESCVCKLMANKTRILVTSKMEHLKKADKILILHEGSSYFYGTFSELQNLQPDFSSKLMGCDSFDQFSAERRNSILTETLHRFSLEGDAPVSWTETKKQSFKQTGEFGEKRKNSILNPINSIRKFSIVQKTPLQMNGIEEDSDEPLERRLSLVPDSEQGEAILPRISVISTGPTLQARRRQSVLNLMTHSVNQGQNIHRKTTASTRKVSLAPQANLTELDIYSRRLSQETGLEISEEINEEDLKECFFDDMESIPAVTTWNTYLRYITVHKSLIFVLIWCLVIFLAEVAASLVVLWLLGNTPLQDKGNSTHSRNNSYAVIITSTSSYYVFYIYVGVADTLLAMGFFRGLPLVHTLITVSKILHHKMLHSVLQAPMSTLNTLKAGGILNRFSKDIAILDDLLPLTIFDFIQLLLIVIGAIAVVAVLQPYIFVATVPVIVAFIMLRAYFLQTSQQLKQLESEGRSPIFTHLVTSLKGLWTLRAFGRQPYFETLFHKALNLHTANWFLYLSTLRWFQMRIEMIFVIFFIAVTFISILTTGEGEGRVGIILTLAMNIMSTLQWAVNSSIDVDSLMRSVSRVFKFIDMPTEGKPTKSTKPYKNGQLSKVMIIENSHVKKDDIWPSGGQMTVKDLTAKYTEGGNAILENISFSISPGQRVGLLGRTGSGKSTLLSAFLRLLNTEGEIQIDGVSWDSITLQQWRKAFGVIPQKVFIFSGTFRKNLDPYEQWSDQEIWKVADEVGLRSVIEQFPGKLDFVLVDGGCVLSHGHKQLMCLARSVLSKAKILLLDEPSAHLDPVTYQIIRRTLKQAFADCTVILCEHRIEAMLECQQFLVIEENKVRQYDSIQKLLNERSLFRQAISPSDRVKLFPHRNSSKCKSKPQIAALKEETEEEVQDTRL

Take `CC1(C)C[C@H]2CCCOc3ccc(cc3)S(=O)(=O)NC(=O)c3ccc(-n4ccc(OCCC5(C(F)(F)F)CC5)n4)nc3N1C2` (single isomer, unassigned) [Compound 99, 12,12-dimethyl-8-(3-{2-[1-(trifluoromethyl)cyclopropyl]ethoxy}-1H-pyrazol-1-yl)-18-oxa-2λ^6-thia-3,9,11-triazatetracyclo[17.2.2.111,14.05,10]tetracosa-1(21),5,7,9,19,22-hexaene-2,2,4-trione]: the EC50 was less than 1 µM and the “Max. Activity” value was “+++ (+++ is >60%)”.

Regarding `CC1(C)C[C@H]2CCCCNc3ccc(cn3)S(=O)(=O)NC(=O)c3ccc(-n4ccc(OCC5C6(CC6)C56CC6)n4)nc3N1C2` (single isomer, unassigned) [Compound 121, 8-[3-({dispiro[2.0.2.1]heptan-7-yl}methoxy)-1H-pyrazol-1-yl]-12,12-dimethyl-2λ^6-thia-3,9,11,19,21-pentaazatetracyclo[18.2.2.111,14.05,10]pentacosa-1(23),5,7,9,20(24),21-hexaene-2,2,4-trione], the EC50 is less than 1 µM and the “Max. Activity” value is recorded as “+++ (+++ is >60%)”.

Turning to `C[C@@H]1CC[C@H]2CN(c3nc(-n4ccc(OCCC5(C(F)(F)F)CC5)n4)ccc3C(=O)NS(=O)(=O)c3cccc(n3)N1)C(C)(C)C2` (single isomer, unassigned) [Compound 59, 12,12,17-trimethyl-8-(3-{2-[1-(trifluoromethyl)cyclopropyl]ethoxy}-1H-pyrazol-1-yl)-2λ^6-thia-3,9,11,18,23-pentaazatetracyclo[17.3.1.111,14.05,10]tetracosa-1(23),5(10),6,8,19,21-hexaene-2,2,4-trione], the concentration for a half-maximal effect (EC50) was less than 1 µM and the “Max. Activity” value was “+++ (+++ is >60%)”.

On to `CC1(C)C[C@@H]2CCCNc3cccc(n3)S(=O)(=O)NC(=O)c3ccc(N4CCN(CCC5(C(F)(F)F)CC5)C4=O)nc3N1C2` [Compound 211, (14S)-12,12-Dimethyl-8-(2-oxo-3-{2-[1-(trifluoromethyl)cyclopropyl]ethyl}imidazolidin-1-yl)-2λ^6-thia-3,9,11,18,23-pentaazatetracyclo[17.3.1.111,14.05,10]tetracosa-1(22),5,7,9,19(23),20-hexaene-2,2,4-trione], for which the EC50 is less than 1 µM and the “Max. Activity” value is “++ (++ is 30-60%)”.

For `CC(C)(C)CCC1C(=O)N(c2ccc3c(n2)N2C[C@@H](CCCNc4cccc(n4)S(=O)(=O)NC3=O)CC2(C)C)CC1(C)C` (stereo partly drawn) [Compound 98, (14S)-8-[3-(3,3-Dimethylbutyl)-4,4-dimethyl-2-oxopyrrolidin-1-yl]-12,12-dimethyl-2λ^6-thia-3,9,11,18,23-pentaazatetracyclo[17.3.1.111,14.05,10]tetracosa-1(22),5,7,9,19(23),20-hexaene-2,2,4-trione], the EC50 is less than 1 µM and the “Max. Activity” value is recorded as “++ (++ is 30-60%)”.

On to `CC1(C)C[C@@H]2CN1c1nc(-n3ccc(OCCC4C5(CC5)C45CC5)n3)ccc1C(=O)NS(=O)(=O)c1cccc(n1)NCCO2` (single isomer, unassigned) [Compound 196, 8-[3-(2-{dispiro[2.0.2.1]heptan-7-yl}ethoxy)-1H-pyrazol-1-yl]-12,12-dimethyl-15-oxa-2λ^6-thia-3,9,11,18,23-pentaazatetracyclo[17.3.1.111,14.05,10]tetracosa-1(23),5(10),6,8,19,21-hexaene-2,2,4-trione], for which the concentration for a half-maximal effect (EC50) lay in the range of 1 to 3 µM and the “Max. Activity” value is recorded as “++ (++ is 30-60%)”.

Regarding `[2H]c1ccc2nc1NCCC[C@@H]1CN(c3nc(-n4ccc(OCC([2H])([2H])C5C6(CC6)C56CC6)n4)ccc3C(=O)NS2(=O)=O)C(C)(C)C1` [Compound 298, (14S)-8-[3-(2-{dispiro[2.0.2.1]heptan-7-yl}-2,2-dideuterio-ethoxy)-1H-pyrazol-1-yl]-12,12-dimethyl(20-deuterio)-2λ^6-thia-3,9,11,18,23-pentaazatetracyclo[17.3.1.111,14.05,10]tetracosa-1(23),5,7,9,19,21-hexaene-2,2,4-trione], the EC50 was less than 1 µM and the “Max. Activity” value is on record as “+++ (+++ is >60%)”.

Regarding `CC1(C)C[C@@H]2CCCNc3cccc(n3)S(=O)(=O)NC(=O)c3ccc(N4CC[C@H](OCCC5C6(CC6)C56CC6)C4=O)nc3N1C2` (single isomer, unassigned) [Compound 179], the EC50 is less than 1 µM and the “Max. Activity” value is listed as “++ (++ is 30-60%)”.

Consider `CC1(C)C[C@H]2CCCCNc3cccc(n3)S(=O)(=O)NC(=O)c3ccc(-n4cc(OCCC5(C(F)(F)F)CC5)cn4)nc3N1C2` (single isomer, unassigned) [Compound 82, 12,12-Dimethyl-8-(4-{2-[1-(trifluoromethyl)cyclopropyl]ethoxy}-1H-pyrazol-1-yl)-2λ^6-thia-3,9,11,19,24-pentaazatetracyclo[18.3.1.111,14.05,10]pentacosa-1(23),5,7,9,20(24),21-hexaene-2,2,4-trione], for which the EC50 is greater than 3 µM and the “Max. Activity” value is on record as “+ (+ is <30%)”.

For the compound `CC1(C)CC[C@H]2CCCNc3cccc(n3)S(=O)(=O)NC(=O)c3ccc(-n4ccc(OCC5C6(CC6)C56CC6)n4)nc3N21` (single isomer, unassigned) [Compound 124, 8-[3-({dispiro[2.0.2.1]heptan-7-yl}methoxy)-1H-pyrazol-1-yl]-12,12-dimethyl-2λ^6-thia-3,9,11,19,24-pentaazatetracyclo[18.3.1.05,10.011,15]tetracosa-1(23),5(10),6,8,20(24),21-hexaene-2,2,4-trione], the EC50 was less than 1 µM and the “Max. Activity” value is “+++ (+++ is >60%)”.

For the compound `CC1(C)C[C@@H]2CCCNc3cccc(n3)S(=O)(=O)NC(=O)c3ccc(N4CCC(OCCC5(C(F)(F)F)CC5)C4=O)nc3N1C2` (stereo partly drawn) [Compound 158, (14S)-12,12-Dimethyl-8-(2-oxo-3-{2-[1-(trifluoromethyl)cyclopropyl]ethoxy}pyrrolidin-1-yl)-2λ^6-thia-3,9,11,18,23-pentaazatetracyclo[17.3.1.111,14.05,10]tetracosa-1(22),5,7,9,19(23),20-hexaene-2,2,4-trione], the EC50 is less than 1 µM and the “Max. Activity” value is “+++ (+++ is >60%)”.

On to `Cc1nn2cc1S(=O)(=O)NC(=O)c1ccc(-n3ccc(OCC(C)(C)C(F)(F)F)n3)nc1N1C[C@H](CCC2)CC1(C)C` (single isomer, unassigned) [Compound 291, 12,20,20-trimethyl-4-[3-(3,3,3-trifluoro-2,2-dimethylpropoxy)-1H-pyrazol-1-yl]-10λ^6-thia-1,3,9,13,14-pentaazatetracyclo[16.2.1.111,14.02,7]docosa-2,4,6,11(22),12-pentaene-8,10,10-trione], for which the EC50 is less than 1 µM and the “Max. Activity” value is listed as “++ (++ is 30-60%)”.

Regarding `CC1(C)C[C@H]2CCCn3ccc(n3)S(=O)(=O)NC(=O)c3ccc(-n4ccc(OCCC5C6(CC6)C56CC6)n4)nc3N1C2` [Compound 186, (18R)-4-[3-(2-{dispiro[2.0.2.1]heptan-7-yl}ethoxy)-1H-pyrazol-1-yl]-20,20-dimethyl-10λ^6-thia-1,3,9,14,22-pentaazatetracyclo[16.2.1.111,14.02,7]docosa-2,4,6,11(22),12-pentaene-8,10,10-trione], the 50% effective concentration (EC50) was less than 1 µM and the “Max. Activity” value was “+ (+ is <30%)”.

As to `CC(C)C(COc1ccn(-c2ccc3c(n2)N2C[C@@H](CC2(C)C)OCCNc2cccc(n2)S(=O)(=O)NC3=O)n1)C(C)C` (single isomer, unassigned) [Compound 249, 12,12-dimethyl-8-{3-[3-methyl-2-(propan-2-yl)butoxy]-1H-pyrazol-1-yl}-15-oxa-2λ^6-thia-3,9,11,18,23-pentaazatetracyclo[17.3.1.111,14.05,10]tetracosa-1(23),5(10),6,8,19,21-hexaene-2,2,4-trione], the concentration for a half-maximal effect (EC50) is less than 1 µM and the “Max. Activity” value was “+++ (+++ is >60%)”.

With `CC1(C)C[C@H]2CCCn3cc(cn3)S(=O)(=O)NC(=O)c3ccc(-n4ccc(OCCC5(C(F)(F)F)CC5)n4)nc3N1C2` (single isomer, unassigned) [Compound 119, 20,20-dimethyl-4-(3-{2-[1-(trifluoromethyl)cyclopropyl]ethoxy}-1H-pyrazol-1-yl)-10λ^6-thia-1,3,9,13,14-pentaazatetracyclo[16.2.1.111,14.02,7]docosa-2,4,6,11(22),12-pentaene-8,10,10-trione], the EC50 was less than 1 µM and the “Max. Activity” value is reported as “+++ (+++ is >60%)”.

As for `CC(C)(C)CCN1CCN(c2ccc3c(n2)N2CC(CCCn4ccc(n4)S(=O)(=O)NC3=O)CC2(C)C)C1=O` (stereo not drawn) [Compound 168, 4-[3-(3,3-dimethylbutyl)-2-oxoimidazolidin-1-yl]-20,20-dimethyl-10λ^6-thia-1,3,9,14,22-pentaazatetracyclo[16.2.1.111,14.02,7]docosa-2,4,6,11(22),12-pentaene-8,10,10-trione], the concentration giving a half-maximal response (EC50) is greater than 3 µM and the “Max. Activity” value is listed as “+ (+ is <30%)”.

Consider `Cc1ccc2nc1NCCC[C@H]1CN(c3nc(-n4ccc(OCCC5(C(F)(F)F)CC5)n4)ccc3C(=O)NS2(=O)=O)C(C)(C)C1` (single isomer, unassigned) [Compound 115, 12,12,20-trimethyl-8-(3-{2-[1-(trifluoromethyl)cyclopropyl]ethoxy}-1H-pyrazol-1-yl)-2λ^6-thia-3,9,11,18,23-pentaazatetracyclo[17.3.1.111,14.05,10]tetracosa-1(23),5(10),6,8,19,21-hexaene-2,2,4-trione], for which the concentration giving a half-maximal response (EC50) is less than 1 µM and the “Max. Activity” value is “+++ (+++ is >60%)”.

Consider `CC1CCC2CN(c3nc(N4CCN(CCC(C)(C)C)C4=O)ccc3C(=O)NS(=O)(=O)c3cccc(n3)N1)C(C)(C)C2` (stereo not drawn) [Compound 209, 8-[3-(3,3-Dimethylbutyl)-2-oxoimidazolidin-1-yl]-12,12,17-trimethyl-2λ^6-thia-3,9,11,18,23-pentaazatetracyclo[17.3.1.111,14.05,10]tetracosa-1(22),5,7,9,19(23),20-hexaene-2,2,4-trione], for which the EC50 was less than 1 µM and the “Max. Activity” value is reported as “++ (++ is 30-60%)”.
